Experimental data from ChEMBL document CHEMBL5331134, “Identification of Brain-Penetrant ATP-Competitive mTOR Inhibitors for CNS Syndromes” (J Med Chem, 2023).

Columns and labels:
[1] = Half life in cynomolgus monkey at 1 mg/kg, po and 0.1 mg/kg, iv measured upto 24 hrs by LC/MS/MS analysis; assay type: ADME, organism-based, Macaca fascicularis; settings: in vivo
[2] = Ratio of drug concentration in brain to plasma in C57BL/6 mouse at 3 mg/kg, po measured at 8 hrs; assay type: ADME, organism-based; settings: read-out: BPR
[3] = Drug concentration in C57BL/6 mouse plasma at 1 mg/kg, po measured after 24 hrs; assay type: ADME, organism-based
[4] = Ratio of drug concentration in brain to plasma in C57BL/6 mouse at 1 mg/kg, po measured at 8 hrs; assay type: ADME, organism-based; settings: read-out: BPR
[5] = Drug concentration in C57BL/6 mouse plasma at 1 mg/kg, po measured after 1 hr; assay type: ADME, organism-based
[6] = Ratio of drug concentration in brain to plasma in C57BL/6 mouse at 10 mg/kg, po measured at 24 hrs; assay type: ADME, organism-based; settings: brain and plasma, read-out: BPR
[7] = Drug concentration in C57BL/6 mouse brain at 1 mg/kg, po measured after 24 hrs; assay type: ADME, organism-based; settings: read-out: Ct
[8] = AUC(0 to t) in cynomolgus monkey at 0.3 mg/kg, po measured upto 24 hrs by LC/MS/MS analysis; assay type: ADME, organism-based, Macaca fascicularis; design: dose 0.3 mg/kg, time < 24 hrs, route po; settings: in vivo
[9] = Cmax in cynomolgus monkey at 0.3 mg/kg, po measured upto 24 hrs by LC/MS/MS analysis; assay type: ADME, organism-based, Macaca fascicularis; design: dose 0.3 mg/kg, time < 24 hrs, route po; settings: in vivo

Structure (SMILES): C[C@@H]1COCCN1c1cc(N2CCOC[C@@H]2C)nc2[nH]c(-c3cscn3)nc12
- half-life [1]: 5 h
- Kp at 8 h [2]: 0.29
- concentration at 24 h [3]: 4 nM
- Kp at 8 h [4]: 0.37
- concentration at 1 h [5]: 766 nM
- Kp at 24 h [6]: 0.62
- concentration at 24 h [7]: 7 nM

Structure (SMILES): C[C@@H]1COCCN1c1cc(N2CCOC[C@@H]2C)nc2[nH]c(-c3ccccn3)nc12
- AUC(0-t) at 24 h [8]: 0.125 µM·h
- Cmax [9]: 13 nM
